{"source": "patent US20220387433A1", "about": "“TYPE V PHOSPHODIESTERASE INHIBITOR COMPOSITIONS, METHODS OF MAKING THEM AND METHODS OF USING THEM IN PREVENTING OR TREATING ELEVATED PULMONARY VASCULAR PRESSURE OR PULMONARY HEMORRHAGES” (American Regent, Inc., priority 2019, published 2022)", "system": "exercising horses", "experiment": "Simulated race test (SRT) on high-speed treadmill", "format": "in vivo", "text": "The purpose of this study was to determine the effects of intravenous administration of E-4021 on cardiorespiratory variables in exercising horses to facilitate the selection of a product dose for the control of hemorrhage associated with Exercise Induced Pulmonary Hemorrhage (EIPH). The formulation given was the propylene glycol formulation of Table 1.\nAnimals: The Rutgers University Institutional Animal Care and Facilities Committee approved all methods and procedures used in this experiment. Eight mature unfit Standardbred horses, 4 geldings and 4 mares were used in this study. The horses were healthy and acceptable for the study as determined by the study veterinarian. All horses underwent a physical examination to establish suitability for inclusion within the study. This included a physical examination and body weights. All of the horses were dewormed and vaccinated per standard veterinary practice. Animals were fed a maintenance ration of alfalfa/grass hay ad libitum and concentrate as needed. Water and mineral blocks were provided ad libitum. The horses were housed individually in 3×3 m stalls between 1600 to 0700 hours. They then performed their daily exercise followed by turnout in groups of 4 in 2 acres dry lot paddocks for ˜7 hrs/day.\nGeneral Study Design: There were four phases in this study detailed below. The horses performed conditioning exercise 4 d/week in a motorized equine exercise machine (Equi-cizer, Calgary, Canada) and heavy exercise 1 d/week on a high-speed treadmill (Sato I, Lexington Ky.) during Phase I. Heavy exercise prepared the horses for the later exercise tests performed during Phase Ib, Phase II, and Phase III of the experiment. The exercise tests were performed in the place of the heavy exercise training during those later three periods.\nPhase II: This was the first part of the main study with test-article dosing of the horses (Weeks ≥12). This part of the experiment was conducted using a randomized semi-crossover design with each horse undergoing a control round within the first two weeks of the phase. Horses were randomly assigned to one of five treatments (CON; 50-45; 100-45; 50-90; 100-90). Control (CON) where no drug was administered; 50-45 where they were tested 45 minutes after receiving a dose of 50 mg; 100-45 where they were tested 45 minutes after receiving 100 mg of the test-article; 50-90 where they were tested 90 minutes after receiving a 50 mg dose; and 100-90 where they were tested 90 minutes after receiving a 100 mg dose. For this phase, the horses ran a simulated race test (SRT) every week on the heavy exercise days. Group A (n=4) horses ran their tests on Thursdays (mornings) and Group B (n=4) horses ran their tests on Fridays (mornings). All horses continued with light and moderate exercise as indicated for the other study days.\nPhase III: This was the second part of the main study. This part of the experiment was conducted using a randomized crossover design where horses were initially assigned to one of four treatments (CON-B; 100-90B; 150-90; 200-90). Control (CON-B) where the horses received no drug; 100-90B where they were tested 90 minutes after receiving a 100 mg dose; 150-90 where they were tested 90 minutes after receiving a 150 mg dose; and 200-90 where they were tested 90 minutes after receiving a 200 mg dose. As with the other treatment phase the horses ran a weekly simulated race test (SRT) on the heavy exercise days. Group A (n=4) horses ran their tests on Thursdays (mornings) and Group B (n=4) horses ran their tests on Fridays (mornings).\nSimulated Race Test (SRT): During the SRT, each horse ran at a speed calculated to correspond to 110% of the speed required to produce maximal oxygen uptake as measured during the GXTs performed during Phase Ib. […] Hemodynamic measurements were recorded, and blood samples were obtained to correspond with the end of the warm-up, at 1 minute and 2 minutes of the high-speed run, and at the end of the recovery period. […]", "data": [{"substance": "sodium 1-[6-chloro-4-(3,4-methylenedioxybenzyl)-aminoquinazolin-2-yl]piperidine-4-carboxylate sesquihydrate [E-4021]", "values": [{"measurement": "Attenuation of increased exercise-related pulmonary vascular pressures", "setting": "100 mg (approximately 500 kg horse), 90 minutes prior to intense exercise", "result": "greatest attenuation"}, {"measurement": "Lower PA pressure after 2 min intense exercise", "setting": "100 mg dose given at 90 min, Phase II and III", "result": "~30", "unit": "mm Hg"}, {"measurement": "Magnitude of PA pressure, 100 mg vs. 150 mg vs. 200 mg trials", "setting": "90 min before exercise, P>0.05, sesquihydrate", "result": "no differences"}, {"measurement": "Lower PAP", "setting": "Example 8, 100 mg at 90 minutes before exercise, propylene glycol formulation", "result": "~30", "unit": "mmHg"}, {"measurement": "Mean pulmonary artery pressures compared to control", "setting": "Phase III, 100, 150, 200 mg 90 min before, at 2 minutes of high intensity exercise, P<0.05", "result": "lower"}, {"measurement": "Markers of aerobic and anaerobic performance", "setting": "SRT, propylene glycol formulation", "result": "did not alter"}, {"measurement": "Effect on plasma lactate concentration", "setting": "SRTs, P>0.05", "result": "no effect"}, {"measurement": "Effect on plasma calcium concentration", "setting": "during the SRTs", "result": "no effect"}, {"measurement": "Effect on plasma glucose concentration", "setting": "during the SRTs", "result": "significant effect"}]}]}
